{"source": "patent US9066990B2", "about": "“Preparation for restenosis prevention” (priority 2001, dated 2015)", "experiment": "Solubility in the contrast agent or physiological NaCl solution"}
{"smiles": "CC(=O)O[C@H]1C(=O)[C@@]2(C)[C@H]([C@H](OC(=O)c3ccccc3)[C@]3(O)C[C@H](OC(=O)[C@H](O)[C@@H](NC(=O)c4ccccc4)c4ccccc4)C(C)=C1C3(C)C)[C@]1(OC(C)=O)CO[C@@H]1C[C@@H]2O", "note": "[paclitaxel, 4,10-β-diacetoxy-13-α-((2R,3S)-3-ben-zamido-2-hydroxy-3-phenylpropionyloxy)-2α-benzoyloxy-5-β, 20-epoxy-1,7-β-dihydroxy-11-taxene-9-one]", "values": [{"measurement": "appearance of preparation after mixing", "setting": "4.2 mg paclitaxel in 0.5 ml of ethanol added at room temperature to 50 ml of 0.9% NaCl solution", "result": "becomes turbid immediately after mixing"}, {"measurement": "particles under a microscope", "setting": "4.2 mg paclitaxel in 50 ml of 0.9% NaCl solution", "result": "Large aggregations of fine particles"}, {"measurement": "appearance of solution after mixing", "setting": "7.6 mg paclitaxel in 0.5 mg of ethanol added at room temperature to 50 ml Ultravist-370", "result": "clear solution without any turbidity"}, {"measurement": "particles under a microscope", "setting": "7.6 mg paclitaxel in 50 ml Ultravist-370", "result": "No particles can be identified"}, {"measurement": "stability of the solution", "setting": "7.6 mg paclitaxel in 50 ml Ultravist-370, room temperature", "result": "remains stable for several days"}]}
